Here are results for 4 compounds from publication PMC10718076, “1,2-Disubstituted bicyclo[2.1.1]hexanes as saturated bioisosteres of ortho-substituted benzene” (Chemical Science, 2023).

Values after ≈ are worked out from the molar mass of the structure shown. Like-named read-outs stand apart in the source and are kept apart here.

Series [1] is described as follows: Kinetic solubility in phosphate-buffered saline, pH 7.4. It is filed as physicochemical. The settings on record: 25 °C, kinetic from dmso stock, phosphate-buffered saline; for solubility kinetic at 2 h: aqueous buffer, pH 7.4, read-out: Sol.: experimental kinetic solubility; for solubility at 2 h: pH 7.4, aqueous buffer. On the procedure: Analysis of Aqueous Solubility […]
compound (Ondansetron) were assessed for kinetic solubility in phosphate -buffered saline, pH 7.4.
Phosphate buffered saline, pH 7.4 (Sigma -Aldrich, USA; Cat #P3813) […]
MultiScreen HTS 96 Well Filter Plates (Millipore, Ireland; Cat # MSSLBPC10) […]
Matrix Multichannel Electronic Pipette 2-125 μL, 5-250 μL, 15-1250 μL (Thermo Scientific, USA; […]
Vacuum pump (Millipore, USA; Model # XX5500000)
The measurements were performed using SpectraMax Plus reader in UV -Vis mode. Acquisition and […]
The measurements were performed using SpectraMax Paradigm reader in UV-Vis mode.
Acquisition and analysis of the data were performed using SoftMax Pro v.5.4 (Molecular Devices) […]
Kinetic solubility assay was performed according to the Enamine’s aqueous solubility SOP. Briefly, using a 20 mM stock solution of the compound in 100% DMSO dilutions were prepared to a theoretical concentration of 400 μM in duplicates in phosphate-buffered saline pH 7.4 […]
compound dilutions in PBS were further allowed to equilibrate at 25 °C on a thermostatic shaker for two hours and then filtered through HTS filter plates using a vacuum manifold. The filtrates of test compounds were diluted 2-fold with acetonitrile with 2% DMSO before measuring.
In parallel, compound dilutions in 50% acetonitrile/PBS were prepared to theoretical concentrations […]
calibration curves. Ondansetron was used as reference compound to control proper assay performance. 200 μl of each sample was transferred to 96-well plate and measured in 230-550 nm range with 5 nm step. The effective range of this assay is approximately 2-400 μM and the […]
The concentrations of compounds in PBS filtrate are calculated using a dedicated Microsoft Excel calculation script. Proper absorbance wavelengths for calculations are selected for each compound manually based on absorbance maximums (absolute absorbance unit values for the minimum and maximum concentration points within the 0 – 3 OD range). Each final dataset is visually evaluated by the operator, and goodness of fit (R2) is calculated for each calibration curve. […]
samples were diluted 2-fold with acetonitrile containing internal standard and were analyzed using the HPLC system coupled with a tandem mass spectrometer. The effective range of this assay is […]

A short description of the next series: physchem. Particulars: pH 7.4, LogD, pH 7.4.
Series [2] in a line: Metabolic stability in human liver microsomes. The settings on record: both; for microsomal CLint at 2 µM / microsomal CLint at 2 μM: pH 7.4; for remaining at 40 min, 2 µM: Mean of 2, 40 min; for remaining at 25 min, 2 µM: Mean of 2, 25 min. (Liver microsomes are vesicles of endoplasmic reticulum, rich in cytochrome P450 enzymes.)
Setting [3] is: Table S2, 2st batch, read-out: PBS solubility, pH 7.4, Incubation 1.
Setting [4] is: Table S2, 2st batch, read-out: PBS solubility, pH 7.4, Incubation 2.
Setting [5] is: Table S2, 2st batch, read-out: PBS solubility, pH 7.4, Mean.
Where [6] appears, read: Table S5, injection 1, octanol/PBS pH 7.4.
[7] abbreviates: Table S5, injection 2, octanol/PBS pH 7.4.
The mark [8] stands for this setting: Table S5, injection 3, octanol/PBS pH 7.4.
Where [9] appears, read: liver microsomes (pooled), pH 7.4, % Remaining without cofactor, no NADPH cofactor, Table S6, 1st batch.
The mark [10] stands for this setting: liver microsomes (pooled), pH 7.4, % Remaining, Mean of 2, 7 min, Table S6, 1st batch.
The mark [11] stands for this setting: liver microsomes (pooled), pH 7.4, % Remaining, Mean of 2, 15 min, Table S6, 1st batch.
Where [12] appears, read: liver microsomes (pooled), pH 7.4, % Remaining, Table S6, 1st batch.
Where [13] appears, read: liver microsomes (pooled), pH 7.4, kel, Table S6, 1st batch.
The mark [14] stands for this setting: liver microsomes (pooled), pH 7.4, t1/2, Table S6, 1st batch.
Setting [15] is: human liver microsomes (pooled).
Setting [16] is: human liver microsomes (pooled), pH 7.4, % Remaining, Table S9, 4st batch.

Experimental for physchem: Determination of Distribution Coefficient (LogD, pH 7.4)
coefficient (or LogD) is a logarithm of the ratio of drug concentrations in two immiscible solvents,
typically pH-buffered water and n-octanol. It is a measure of hydrophobic/hydrophilic properties of
a given molecule. The partition of test compounds is determined using a shake-flask method, which
involves mixing of a certain amount of the solute of interest in defined volumes of n-octanol and an
aqueous buffer of choice followed by equilibration of the mixture by incubation with efficient
mixing. Then, the distribution of the compounds in each solvent was controlled using LC-MS/MS.
Phosphate buffered saline, tablet (Sigma-Aldrich, USA; Cat # P4417)
Acetic acid (Enamine, Ukraine)
1.1 mL microtubes in microracks, pipettor tips (Thermo Scientific, USA).
National Scientific MicroTube™ Rack (Thermo Fisher Scientific, USA; Cat # TN094612R)
Gradient HPLC system (Shimadzu, Japan)
Triple quadrapole mass-detector API 3000 with TurboIonSpray Ion Source (AB Sciex, Canada)
MTR22 Multi Mix Rotator (UNICO, USA)
Laboratory Centrifuge, Sigma 4-15C, Qiagen (SIGMA GmbH, Germany)
Water purification system Millipore Milli-Q Gradient A10 (Millipore, France)
All measurements were performed using a Shimadzu Prominence HPLC system including a
vacuum degasser, gradient pumps, a reverse phase column, a column oven and an autosampler.
Mass spectrometric analysis was performed using an API 4000 QTRAP mass spectrometer from
Applied Biosystems/MDS Sciex (AB Sciex) with Turbo V ion source and TurboIonspray
interface. The TurboIonSpray ion source was used in both positive and negative ion modes.
Acquisition and analysis of the data were performed using Analyst 1.6.3 software.
Incubations were carried out in Eppendorf-type polypropylene microtubes in triplicates. A 2.5 μL
aliquot of 20 mM DMSO stock of a test compound was added into the previously mutually
saturated mixture containing 500 μL of PBS (pH 7.4) and 500 μL of octanol. The solution was
allowed to mix in a rotator for 1 hour at 30 rpm. Phase separation was assured by centrifugation for
2 min at 6000 rpm. The octanol phase was diluted 100-fold with 40% acetonitrile, and the aqueous
phase (PBS buffer) was diluted 10-fold with 40% acetonitrile. The samples (both phases) were
analyzed using an HPLC system coupled with a tandem mass spectrometer.
Calculations of the partition ratios were carried out using the equation below.
where: – peak area of the analyte in octanol phase
– peak area of the analyte in PBS buffer
– dilution coefficient for octanol phase dp – dilution coefficient for aqueous phase

The term solubility (kinetic) denotes the concentration staying in solution when a stock, usually in DMSO, is diluted into the medium. The solubility is the concentration that dissolves in the medium under given conditions. A word on the logD: it is the decadic logarithm of the distribution of all forms, ionised or not, between an organic phase and buffer at a given pH. High values mean higher lipophilicity, low ones lower lipophilicity. A word on the microsomal CLint: it is the capacity of the preparation to metabolise the compound, expressed as a volume cleared per time. As a reminder, the half-life is the time in which the quantity being followed falls by half. The low end stands for rapid decline, the high end for slow decline. Consider `Cn1cc(C(=O)NC2CC3CC2(c2ccc(Cl)c(Cl)c2)C3)c(C(F)F)n1` (stereo not shown) [Compound 29], for which the solubility (kinetic) at 2 h in series [1] is 4 µM (≈ 1.6 µg/mL). Besides, the solubility at 2 h in series [1] (setting [3]), in series [1] (setting [4]) and in series [1] (setting [5]) was 4 µM (≈ 1.6 µg/mL) in each case. Moreover, the D is, setting by setting: under setting [6], 1.26E+04; under setting [7], 1.38E+04; under setting [8], 1.92E+04. This compound also showed a logD at 1 h in the series “physchem” of 4.1. For the same compound, the microsomal CLint at 2 µM in series [2] (liver microsomes (pooled)) was 35 µL/min/mg. For the same compound, the share remaining at 40 min, 2 µM in series [2] (setting [9]) stood at 106%; in series [2] (setting [12]), 54%. Also, the fraction remaining at […], 2 µM stood at 83% in series [2] (setting [10]) and 73% in series [2] (setting [11]). Further, in series [2] (setting [12]), the fraction remaining at 25 min, 2 µM worked out at 67%. Further, the k el at 2 µM in series [2] (setting [13]) was 0.00025 s⁻¹. The same compound gave a half-life at 2 µM in series [2] (setting [14]) of 47.4 min.
On to `Cn1cc(C(=O)Nc2ccc(F)cc2-c2ccc(Cl)c(Cl)c2)c(C(F)F)n1` [Bixafen, bixafen], for which, in series [1], the kinetic solubility at 2 h was found to be 30 µM (≈ 12.4 µg/mL). Further, the solubility at 2 h was found to be 29 µM (≈ 12 µg/mL) in series [1] (Table S4, 4nd batch, read-out: PBS solubility, pH 7.4, Incubation 1); 31 µM (≈ 12.8 µg/mL) in series [1] (Table S4, 4nd batch, read-out: PBS solubility, pH 7.4, Incubation 2); 30 µM (≈ 12.4 µg/mL) in series [1] (Table S4, 4nd batch, read-out: PBS solubility, pH 7.4, Mean). In addition, the D under setting [6] is given as 1.23E+04, the D under setting [7] came out at 1.53E+04 and the D under setting [8] is listed as 2.30E+04. Further, the logD at 1 h in the series “physchem” was 4.09. In series [2] (setting [15]), this compound returned a microsomal CLint at 2 μM of roughly 10 µL/min/mg. In addition, the share remaining at 40 min, 2 µM in series [2] (human liver microsomes (pooled), pH 7.4, % Remaining without cofactor, no NADPH cofactor, Table S9, 4st batch) came out at 101%; in series [2] (setting [16]), 87%. Moreover, the amount remaining at […], 2 µM in series [2] (human liver microsomes (pooled), pH 7.4, % Remaining, Mean of 2, 7 min, Table S9, 4st batch) was 105%; in series [2] (human liver microsomes (pooled), pH 7.4, % Remaining, Mean of 2, 15 min, Table S9, 4st batch) it was 97%. The share remaining at 25 min, 2 µM in series [2] (setting [16]) turned out to be 93%. The same compound gave a k el at 2 μM in series [2] (human liver microsomes (pooled), pH 7.4, kel, Table S9, 4st batch, * approximate due to high stability) of roughly 6.67e-05 s⁻¹. This compound also yielded a half-life at 2 µM in series [2] (human liver microsomes (pooled), pH 7.4, t1/2, Table S9, 4st batch, * approximate due to high stability) of roughly 161 min.
Consider `O=C(NC1CC2CC1(c1ccc(Cl)cc1)C2)c1cccnc1Cl` (stereo not shown) [Compound 28], for which the solubility (kinetic) at 2 h in series [1] is 35 µM (≈ 12.2 µg/mL). Further, the results for the solubility at 2 h in series [1] (setting [3]), in series [1] (setting [4]) and in series [1] (setting [5]) were 35 µM (≈ 12.2 µg/mL), 34 µM (≈ 11.8 µg/mL) and 35 µM (≈ 12.2 µg/mL), respectively. The D was found to be 3.84E+03 under setting [6], 3.81E+03 under setting [7] and 3.49E+03 under setting [8]. Moreover, the logD at 1 h in “physchem” was found to be 3.58. In series [2] (setting [15]), this compound yielded a microsomal CLint at 2 μM of 29 µL/min/mg. Further, the fraction remaining at 40 min, 2 µM in series [2] (setting [9]) amounted to 116%; in series [2] (setting [12]) it was 61%. The fraction remaining at […], 2 µM in series [2] (setting [10]) worked out at 88%; in series [2] (setting [11]), 82%. In series [2] (setting [12]), the amount remaining at 25 min, 2 µM is 72%. Besides, the k el at 2 µM in series [2] (setting [13]) is 0.0002 s⁻¹. The compound also came in with a half-life at 2 µM in series [2] (setting [14]) of 57.6 min.
In the case of `Cn1cc(C(=O)NC2CC3CC2(c2cc(F)c(F)c(F)c2)C3)c(C(F)F)n1` (stereo not shown) [Compound 30], the kinetic solubility at 2 h in series [1] was determined as 27 µM (≈ 10.4 µg/mL). In addition, the solubility at 2 h in series [1] (setting [3]) stood at 25 µM (≈ 9.63 µg/mL); in series [1] (setting [4]) it was 28 µM (≈ 10.8 µg/mL); in series [1] (setting [5]), 27 µM (≈ 10.4 µg/mL). In addition, the D is listed as 4.08E+03 under setting [6], 4.11E+03 under setting [7] and 4.44E+03 under setting [8]. In the series “physchem”, this compound displayed a logD at 1 h of 3.61. Besides, the microsomal CLint at 2 µM in series [2] (liver microsomes (pooled)) came out at 61 µL/min/mg. Also, the fraction remaining at 40 min, 2 µM in series [2] (setting [9]) came to 109%; in series [2] (setting [12]), 35%. Further, the values for the amount remaining at […], 2 µM in series [2] (setting [10]) and in series [2] (setting [11]) were 70% and 53%, respectively. The amount remaining at 25 min, 2 µM in series [2] (setting [12]) was found to be 43%. Moreover, in series [2] (setting [13]), the k el at 2 µM is 0.000417 s⁻¹. The compound also came in with a half-life at 2 µM in series [2] (setting [14]) of 27.3 min.
